The numbers were not newly measured in patent US6946461B2, “Imidazolophthalazine derivatives as ligands for GABAA receptors” (Merck Sharp & Dohme Ltd., priority 2000, dated 2005), which cites them from elsewhere.

For series [1] the following is noted: in vivo.
For a further series, the system named is spatial learning. Particulars: reported by McNamara and Skelton.

In the case of `COC(=O)c1cc2c(cn1)[nH]c1ccccc12` [β-CCM], the proconvulsant effect entry in series [1] is given as “proconvulsant”. Further, the “spatial learning in the Morris watermaze” value in the series on spatial learning is given as “enhanced spatial learning”.
